≈ marks a conversion by molar mass, not a printed value.
What was measured:
[1] = test system: Stomach cancer cells, SNU-601; experiment: Anti-cancer activity in vivo of hydrogel conjugated with doxorubicin; design: species or system nude mouse (Balb/C)
Description: The anti-cancer activity in vivo of the poly(organophosphazene) hydrogel conjugated with doxorubicin prepared by the method of Example 5 was determined by the following method.
A nude mouse (OrientalBio, Balb/C, female of 5-weeks old, 20 g) was used as an animal model for animal experimentation for an in vivo test. Stomach cancer cells, SNU-601 (1×10^7 cells, 0.2 ml, the Korean Cell Line Bank), were injected into the dorsum of the mouse. A polymer solution containing the 10 wt % poly(organophosphazene)-doxorubicin conjugate of Example 5 in phosphate buffered saline (pH 7.4) was prepared. 0.1 ml and 0.2 ml of the solution was respectively injected into the cancer cells, and the change in the size of the cancer cells was measured.
When the solution is injected in an amount as much as 0.1 ml, the amount of doxorubicin injected is 30 mg per 1 kg of the mouse weight. When the solution is injected in an amount as much as 0.2 ml, the amount of doxorubicin injected is 60 mg per 1 kg of the mouse weight.
(§1) As the control group, the magnitude transition of the cancer cell into which doxorubicin was injected in the amount of 30 mg per 1 kg of the mouse weight and that to which saline is administered instead of the anti-cancer drug were measured respectively. The number of mouse used was 10 heads respectively.

[2] = test system: human breast adenocarcinoma (MCF-7); experiment: Anti-cancer activity in vitro, MTT; assay type: cell-based; conditions: for IC50: Homo sapiens
Description: (§2) In order to find out anticancer activity in vitro of the poly(organophosphazene) conjugated with anti-cancer drug of the present invention, the trial as follows was performed about the human breast adenocarcinoma (MCF-7, the Korea Cell Line Bank) and the human cervix adenocarcinoma (Hela, the Korea Cell Line Bank).
(§3) For the in vitro cell experiment, in order to measure the genesistasis concentration to 50% (IC50) toward the cancer cell of the poly(organophosphazene) conjugated with anticancer drug, the analytical method using 3-(4,5-dimethylthiazol-2-yl)-2,5-diphenyl-2H-tetrazolium bromide (MTT) was performed [T. Mosmann, J. Immunol. Method, 65, (1985) 55].
(§4) The materials for to measuring were respectively melted in the DMSO (dimethylsulfoxide) of the small amount, and they were diluted to the distilled water with 200 times. The materials solution were added to the cancer cell that is MCF-7(the Korea Cell Line Bank) and Hela (the Korea Cell Line Bank). Then, they were added to 96-well microtiter plater to 1.0×10^4 cell/ml (the concentration of the cancer cell). And they were cultivated for 2, 3, 4 days, respectively, with 37° C. in 5% CO2 condition.
(§5) MTT solution (20 μl) was mixed the cultivated cell with, and they were more cultivated for 4 hours with 37° C. in 5% CO2 condition. After the upper culture medium of each cell was removed, DMSO (100 μl) was added to a well and they were shaken in the room temperature to the plate shaker with for 20 minutes, thereby dissolving the formazan crystal generated by reducing of MTT.

[3] = test system: human cervix adenocarcinoma (Hela); experiment: Anti-cancer activity in vitro, MTT; assay type: cell-based; conditions: for IC50: Homo sapiens, HeLa
Description: as §2, §3, §4, §5

[4] = test system: stomach cancer, SNU-601; experiment: Anti-cancer activity in vivo of hydrogel conjugated with paclitaxel; design: species or system nude mouse (Balb/C)
Description: The anti-cancer activity in vivo of the poly(organophosphazene) hydrogel conjugated with paclitaxel prepared by the method of Example 1 was determined by the following method.
A nude mouse (OrientalBio, Balb/C, female of 5-weeks old, 20 g) was used as an animal model for animal experimentation for an in vivo test. Cells of stomach cancer, SNU-601 (1×10^7 cells, 0.2 ml, the Korean Cell Line Bank), were injected into the dorsum of the mouse. A polymer solution containing the 10 wt % poly(organophosphazene)-paclitaxel conjugate of Example 1 in phosphate buffered saline (pH 7.4) was prepared. 0.1 ml and 0.2 ml of the solution were respectively injected into the cancer cells, and the change in the size of the cells was measured.
When the solution is injected in an amount as much as 0.1 ml, the amount of paclitaxel injected is 10 mg per 1 kg of the mouse weight. When the solution is injected in an amount as much as 0.2 ml, the amount of paclitaxel injected is […] per 1 kg of the mouse weight.
as §1, with “which paclitaxel” for “which doxorubicin”, “of 60” for “of 30”, “that of the cancer cell into” for “that to”, “saline was” for “saline is”

[5] = Sol-gel phase transition with change of temperature (Brookfield rheometer); assay type: physicochemical; conditions: for Gel solidity (maximum viscosity of the polymer solution) / Max. gelling temp. (temperature where the viscosity of the polymer solution reaches the maximum point): 10 wt % in phosphate buffered saline (pH 7.4)
Description: The poly(organophosphazene) conjugated with a drug or bioactivemolecules obtained in Examples 1 to 11 were respectively dissolved in phosphate buffered saline (pH 7.4) at 4° C. so as to make solutions with concentrations of 10 wt %. The solutions were put into a chamber of a Brookfield DV-III+ Rheometer equipped with a thermostatic bath (TC-501).

[6] = Hydrolysis of the polymer with time by GPC molecular weight; assay type: physicochemical; conditions: 10 wt % in PBS pH 7.4, 37° C., compared among Examples 3, 4 and 9

For `COc1cccc2c1C(=O)c1c(O)c3c(c(O)c1C2=O)C[C@@](O)(C(=O)CO)C[C@@H]3O[C@H]1C[C@H](N)[C@H](O)[C@H](C)O1` [doxorubicin, reference compound], the “mortality due to toxicity” value ([1]; free doxorubicin 30 mg/kg, after 14 days, 10 mice per group) was “all of mouse died”, the IC50 ([2]; MCF7, MCF-7, 2nd day) was 2.29 µg/mL (≈ 4.22 µM) and the IC50 ([2]; MCF7, MCF-7, 3rd day) was 1.69 µg/mL (≈ 3.11 µM). The IC50 ([2]; MCF7, MCF-7, 4th day) was 1 µg/mL (≈ 1.85 µM), the IC50 ([3]; 2nd day) was 0.321 µg/mL (≈ 0.591 µM) and the IC50 ([3]; 3rd day) was 0.692 µg/mL (≈ 1.27 µM). It also gave an IC50 ([3]; 4th day) of 0.19 µg/mL (≈ 0.35 µM).

With `CC(=O)O[C@H]1C(=O)[C@@]2(C)[C@H]([C@H](OC(=O)c3ccccc3)[C@]3(O)C[C@H](OC(=O)[C@H](O)[C@@H](NC(=O)c4ccccc4)c4ccccc4)C(C)=C1C3(C)C)[C@]1(OC(C)=O)CO[C@@H]1C[C@@H]2O` [paclitaxel, reference compound] the “mice died due to toxicity” value ([4]; 60 mg/kg, after 10 days, 10 mice per group) was 8 mouse heads, the IC50 ([2]; MCF7, MCF-7, 2nd day) was 0.022 µg/mL (≈ 0.0258 µM) and the IC50 ([2]; MCF7, MCF-7, 3rd day) was 0.006 µg/mL (≈ 0.00703 µM). It also gave an IC50 ([2]; MCF7, MCF-7, 4th day) of 0.002 µg/mL (≈ 0.00234 µM), an IC50 ([3]; 2nd day) of 0.083 µg/mL (≈ 0.0972 µM) and an IC50 ([3]; 3rd day) of 0.021 µg/mL (≈ 0.0246 µM). For the same compound, the IC50 ([3]; 4th day) was 0.014 µg/mL (≈ 0.0164 µM).

With “poly[(isoleucineethylester)(aminomethoxypolyethyleneglycol 550)(glycylglycine)(glycylglycin)(glycylglycylglycin-arginine-glycin-asparagine-cerinicacidpeptied)phosphazene] [Example 11]” the “Gel solidity (maximum viscosity of the polymer solution)” value (“Gel solidity” for short) [5] was 155 Pa · s and the “Max. gelling temp. (temperature where the viscosity of the polymer solution reaches the maximum point)” value [5] was 44 °C.

In the case of “poly[(isoleucineethylester)(aminomethoxypolyethyleneglycol 550)(glycylglycine)(glycylglycyldoxorubicin)phosphazene] [Example 4]”, the “Anti-cancer activity [IC50]” value ([2]; MCF-7, 2nd day) is reported as 2.829 µg/mL, the “Anti-cancer activity [IC50]” value ([2]; MCF-7, 3rd day) is reported as 2.801 µg/mL and the “Anti-cancer activity [IC50]” value ([2]; MCF-7, 4th day) is reported as 1.641 µg/mL. For the same compound, the “Anti-cancer activity [IC50]” value ([3]; 2nd day) was 1.425 µg/mL, the “Anti-cancer activity [IC50]” value ([3]; 3rd day) was 0.892 µg/mL and the “Anti-cancer activity [IC50]” value ([3]; 4th day) was 0.283 µg/mL. For the same compound, the “Gel solidity” value [5] was 88 Pa · s and the “Max. gelling temp. (temperature where the viscosity of the polymer solution reaches the maximum point)” value [5] was 37 °C.

With “poly[(isoleucineethylester)(aminomethoxypolyethyleneglycol 550)(glycylglycine)(glycylglycyldoxorubicin)phosphazene] [Example 5]” the “size of the cancer cells decreased to” value ([1]; 0.1 ml intratumoral (doxorubicin 30 mg/kg), after 14 days) was 68%, the “size of the cancer cells decreased to” value ([1]; 0.1 ml intratumoral (doxorubicin 30 mg/kg), after 26 days) was 173% and the “size of the cancer cells decreased to” value ([1]; 0.1 ml intratumoral (doxorubicin 30 mg/kg), after 28 days) was 168%. For the same compound, the “size of the cancer cells decreased to” value ([1]; 0.2 ml intratumoral (doxorubicin 60 mg/kg), after 14 days) was 155%, the “size of the cancer cells decreased to” value ([1]; 0.2 ml intratumoral (doxorubicin 60 mg/kg), after 22 days) was 195% and the “size of the cancer cells decreased to” value ([1]; 0.2 ml intratumoral (doxorubicin 60 mg/kg), after 28 days) was 182%. The mortality ([1]; doxorubicin concentration of 30 mg/kg as hydrogel, 10 mice per group) was “did not die”, the mortality ([1]; doxorubicin concentration of 60 mg/kg as hydrogel, 10 mice per group) was “did not die” and the “Gel solidity” value [5] was 1477 Pa · s. For the same compound, the “Max. gelling temp. (temperature where the viscosity of the polymer solution reaches the maximum point)” value [5] was 39 °C.

For “poly[(isoleucineethylester)(aminomethoxypolyethyleneglycol 550)(glycylglycine)(glycylglycylglycin-arginine-glycin-asparagine-cerinicacidpeptied)phosphazene] [Example 7]”, the “Gel solidity” value [5] was 145 Pa · s and the “Max. gelling temp. (temperature where the viscosity of the polymer solution reaches the maximum point)” value [5] was 42 °C.

For “poly[(isoleucineethylester)(aminomethoxypolyethyleneglycol 550)(glycylglycine)(glycylglycylglycin-arginine-glycin-asparagine-cerinicacidpeptied)phosphazene] [Example 8]”, the “Gel solidity” value [5] was 318 Pa · s and the “Max. gelling temp. (temperature where the viscosity of the polymer solution reaches the maximum point)” value [5] was 39 °C.

With “poly[(isoleucineethylester)(aminomethoxypolyethyleneglycol 550)(glycylglycine)(glycylglycylglycmethylester)(glycylglycylglycin-arginine-glycin-asparagine-cerinicacidpeptied)phosphazene] [Example 9]” the “speed of hydrolysis (reduced molecular weight by GPC)” value [6] was “the most quickly hydrolyzed”, the “Gel solidity” value [5] was 130 Pa · s and the “Max. gelling temp. (temperature where the viscosity of the polymer solution reaches the maximum point)” value [5] was 46 °C. For the same compound, the “viscosity in 37° C.” value ([5]; compared among Examples 3, 4 and 9) was “the lowest viscosity”.

In the case of “poly[(isoleucineethylester)(aminomethoxypolyethyleneglycol 550)(glycylglycine)(glycylglycylglycylethylester)(glycylglycylglycin-arginine-glycin-asparagine-cerinicacidpeptied)phosphazene] [Example 10]”, the “Gel solidity” value [5] is reported as 238 Pa · s and the “Max. gelling temp. (temperature where the viscosity of the polymer solution reaches the maximum point)” value [5] is reported as 42 °C.

In the case of “poly[(isoleucineethylester)(aminomethoxypolyethyleneglycol 550)(glycylglycine)(glycylglycylpaclitaxel)phosphazene] [Example 1]”, the “size of the cancer cells decreased to” value ([4]; 0.1 ml intratumoral (paclitaxel 10 mg/kg), after 26 days) is reported as 60%, the “size of the cancer cells decreased to” value ([4]; 0.1 ml intratumoral (paclitaxel 10 mg/kg), after 34 days) is reported as 57% and the “size of the cancer cells decreased to” value ([4]; 0.2 ml intratumoral (paclitaxel 30 mg/kg), after 26 days) is reported as 81%. For the same compound, the “size of the cancer cells decreased to” value ([4]; 0.2 ml intratumoral (paclitaxel 30 mg/kg), after 34 days) was 81%, the “Anti-cancer activity [IC50]” value ([2]; MCF-7, 2nd day) was 0.025 µg/mL and the “Anti-cancer activity [IC50]” value ([2]; MCF-7, 3rd day) was 0.018 µg/mL. The “Anti-cancer activity [IC50]” value ([2]; MCF-7, 4th day) was 0.003 µg/mL, the “Anti-cancer activity [IC50]” value ([3]; 2nd day) was 0.099 µg/mL and the “Anti-cancer activity [IC50]” value ([3]; 3rd day) was 0.057 µg/mL. For the same compound, the “Anti-cancer activity [IC50]” value ([3]; 4th day) was 0.022 µg/mL, the “Gel solidity” value [5] was 128 Pa · s and the “Max. gelling temp. (temperature where the viscosity of the polymer solution reaches the maximum point)” value [5] was 40 °C.

In the case of “poly[(isoleucineethylester)(aminomethoxypolyethyleneglycol 550)(glycylglycine)(glycylglycylpaclitaxel)phosphazene] [Example 2]”, the “Anti-cancer activity [IC50]” value ([2]; MCF-7, 2nd day) is reported as 0.027 µg/mL, the “Anti-cancer activity [IC50]” value ([2]; MCF-7, 3rd day) is reported as 0.021 µg/mL and the “Anti-cancer activity [IC50]” value ([2]; MCF-7, 4th day) is reported as 0.007 µg/mL. The “Anti-cancer activity [IC50]” value ([3]; 2nd day) was 0.082 µg/mL, the “Anti-cancer activity [IC50]” value ([3]; 3rd day) was 0.079 µg/mL and the “Anti-cancer activity [IC50]” value ([3]; 4th day) was 0.048 µg/mL. The “Gel solidity” value [5] was 230 Pa · s and the “Max. gelling temp. (temperature where the viscosity of the polymer solution reaches the maximum point)” value [5] was 38 °C.

In the case of “poly[(isoleucineethylester)(aminomethoxypolyethyleneglycol 750)(glycylglycine)(glycylglycyldoxorubicin)phosphazene] [Example 6]”, the “Gel solidity” value [5] is reported as 313 Pa · s and the “Max. gelling temp. (temperature where the viscosity of the polymer solution reaches the maximum point)” value [5] is reported as 46 °C.

Source: patent publication US8287888B2, “Thermosensitive polyphosphazene-bioactive molecule conjugates, preparation method thereof and use thereof” (Korea Institute of Science and Technology, priority 2006, dated 2012)
